Here are results for four molecules from publication PMC10568017, “A quest for the stereo-electronic requirements for selective agonism for the neurotrophin receptors TrkA and TrkB in 17-spirocyclic-dehydroepiandrosterone derivatives” (Frontiers in Molecular Neuroscience, 2023).

Series [1] deals with PC12 cells. As to the kind of experiment: CellTox assay, survival of PC12 cells under serum deprivation. The series is classed as cell-based. Conditions: compound 500 nM, 24 h, after 4 h serum starvation; NGF 100 ng/mL as control (Figure 9). The procedure: PC12 cells were obtained from LGC Promochem and cultured under specified conditions. Cells were grown in DMEM medium (Thermo Fischer Scientific, cat# 10566016) containing 10% horse serum (Thermo Fischer Scientific, cat# 16050122), 5% fetal bovine serum (Thermo Fischer Scientific, cat# 10270106), 100 units/mL penicillin, and 0.1 mg/mL streptomycin (Thermo Fischer Scientific, cat# 15140122) at 5% CO2 and 37°C. Cells were used between passages 5 and 20.
CellTox assay (G8742, Promega, Leiden, Belgium) was used to assess the survival of PC12 cells under serum deprivation conditions. PC12 cells were plated in 96-well plates, starved from serum for 4 h, and subsequently treated with NGF (100 ng/mL) or compound (500 nM) for 24 h. CellTox assay reagents and Hoescht (1:10,000, H3570, Invitrogen, Massachusetts, USA) were then added to each well for 30 min, and then, cells were imaged with a Zeiss AXIO Vert A1 fluorescent microscope. CellTox positive cells were normalized to the total number of cells for each image.
Initially, we tested compounds ENT-A002, ENT-A007, ENT-A009, ENTA025, ENT-A026, ENT-A033, ENT-A034, ENT-A035, ENT-A036, ENT-A037, ENT-A046, ENT-A047, ENT-A055, and ENT-A056 for their ability to protect PC12 cells from serum deprivation-induced cell death as well as for their ability to activate TrkA downstream pro-survival signaling kinases Akt and Erk1/2 (Figures 9A–C). We opted to employ PC12 cells, which express receptors TrkA and p75 and have been routinely used for investigating NGF-TrkA signaling. PC12 cells were subjected to a period of nutrient deprivation (without fetal bovine serum and horse serum in their culture medium) for 4 h. Following this, NGF (100 ng/mL) or one of the compounds (500 nM or 1 μM) was administered and allowed to interact with the cells for 24 h. Following that, CellTox and Hoescht dyes were added and cells were imaged to assess cell death. Control cases involved cells cultured in full medium (serum), cells under starvation conditions (serum-free), and cells under starvation conditions treated with DMSO (SF+DMSO).

Series [2] has as its system NIH-3T3 TrkB-expressing cell line. As to the kind of experiment: CellTox Green cytotoxicity assay in NIH-3T3 cells stable transfected with TrkB under serum deprivation. Format: cell-based. Conditions: compound 1 μM, 24 h, after 24 h serum starvation; BDNF 500 ng/mL as control. As to the method:
(§1) We tested compounds on three cellular systems, primary cortical astrocytes from 2-day-old mice (as a natively TrkB-expressing neuronal population), and NIH-3T3 fibroblasts stable transfected with TrkB and NIH-3T3 naïve cells. Cells were grown with high-glucose DMEM medium supplemented with 10% fetal bovine serum (FBS), 100 μg/mL streptomycin, and 100 units/mL penicillin at 37°C in a humidified 5% CO2 atmosphere. Phosphorylation results presented here are in primary astrocytes, and cell toxicity assay results are in NIH-3T3 stable transfected cells with TrkB.
NIH-3T3 stable transfected cells with TrkB were plated in 96-well plates at a density of 10,000 cells/well, before carrying out serum starvation for 24 h. Cells were then treated for 24 h with either BDNF at 500 ng/mL (control) or the compounds at 1 μM.
(§2) For the cell toxicity assay, we used CellTox™ Green Dye (2,000 × , Promega) for the visualization of dead cells and Hoechst 33,342 solution (10,000 × ) for total cells. A ZEISS Axio Vert.A1 microscope was used for image capture, and the ImageJ software (https://imagej.nih.gov/ij/) was used for analysis. The number of CellTox positive cells was normalized against the total number of cells observed in each image.
The NIH-3T3 TrkB cell line, which is stable and transfected to specifically express the TrkB receptor, was used for the screening of the new compounds for their ability to protect cells from serum deprivation-induced apoptosis through the activation of the TrkB receptor. Cell death was induced by serum deprivation for 24 h and then BDNF (500 ng/mL), the native neurotrophin ligand of the TrkB receptor, or compounds ENT-A007, ENT-A009, ENTA025, ENT-A026, ENT-A033, ENT-A034, ENT-A035, ENT-A036, ENT-A037, ENT-A046, ENT-A047, ENT-A055, and ENT-A056 (1 μM) were added to the media for 24 h.

For series [3], the target named is T1, TrkB (Mus musculus, UniProt P15209).
T1 construct: primary cortical astrocytes from 2-day-old mice (as a natively TrkB-expressing neuronal population); endogenous in cells; host or cells: primary cortical astrocytes from C57B/6 mouse pups (P2)
As to the kind of experiment: TrkB phosphorylation assay in primary astrocytes (Western blot). The series is classed as cell-based. Conditions: compound 1 μM, 20 min, after 6 h serum starvation, BDNF 500 ng/mL as control. The procedure: as §1
Cells were plated in 12 well plates, at a density of 100,000 cells per well, with 6 h of serum deprivation carried out on the following day. To assess the effect of compounds on TrkB phosphorylation, 20-min treatments were applied, using either BDNF at 500 ng/mL (Peprotech 450-02) (positive control) or compounds at 1 μM.
Cell lysis for 10 min was carried out on ice using the Pierce IP Lysis Buffer by Thermo Scientific and a phospho-protease inhibitor cocktail by Millipore. After adding loading buffer (5 × Laemni), 25 μg from each protein sample were incubated for 5 min at 95°C and subjected to SDS-PAGE. Proteins were transferred to a nitrocellulose membrane at 350 mA for 2 h. Membrane blocking was performed using 5% bovine serum albumin (BSA) at room temperature for 1 h, before adding the primary antibodies to the blocking solution at 4°C overnight. HRP-conjugated secondary antibodies were used for the detection of chemiluminescence with ECL solution. Primary antibodies: Phospho-TrkB (Tyr816) Millipore # ABN1381, and Anti-TrkB Abcam #ab33655.
Mixed glial cultures were isolated from the cortex of C57B/6 pups at post-natal day 2 (P2). Cells were plated in a medium containing high-glucose DMEM, 200 U/mL penicillin, 200 μg/mL streptomycin, and 10% fetal bovine serum (FBS). When cells reach 100% confluency (7–8 days), the anti-mitotic agent Ara-C was added in the media at a final concentration of 10 μM, for 3 to 4 days to target the highly proliferative microglial cells. Ara-C was removed, and primary astrocytes (97% purity) were cultured at 5% CO2 and 37°C.
Cells were plated at 70–80% confluency. The next day, they were deprived of serum for 6 h and subsequently treated with 500 ng/mL BDNF or 1 μM of compounds for 20 min. Cells were then lysed in Pierce™ IP Lysis Buffer (87788, Thermo Fischer Scientific, Rockford, USA), containing proteases (539138, Calbiochem, Darmstadt, Germany), and phosphatase inhibitors (524629, Calbiochem, Darmstadt, Germany). Lysates were then suspended in an SDS loading buffer and subjected to Western blot against phosphorylated TrkB (1:1,000, ABN1381, Sigma-Aldrich, St. Louis, MO, USA) and total TrkB (1:1,000, 07-225-I, Sigma-Aldrich, St. Louis, MO, USA).

Series [4] has as its system NIH3T3 naive cells. Kind of series: CellTox assay in NIH3T3 naive cells under serum deprivation. Conditions: compound 1 μM or BDNF 500 ng/mL, 24 h, after 18 h nutrient deprivation. Format: cell-based. As to the method:
as §1, §2
These cells were treated with the compounds, or BDNF, for 24 h under starvation conditions. Control conditions included cells cultured with serum, serum-free conditions, and serum-free conditions supplemented with DMSO. The cells were subjected to a period of 18 h of nutrient deprivation before the treatments. […] Therefore, we infer that the involvement of the TrkB receptor is indeed essential for the cell-protective effects of ENT-A076, ENT-A087, and ENT-A088 (Figures 14A, B).

Series [5] can be described thus: Metabolic stability in pooled human liver microsomes. Format: in vitro ADME. Conditions: 1 μM; for residual of time zero: pooled human liver microsomes 0.5 mg/mL, t = 60 min, NADPH; for parent structure loss (depletion) class: pooled human liver microsomes, 60 min. The procedure:
For metabolic stability assessment, pooled human liver microsomes were employed at 0.5 mg/mL. Incubation conditions were optimized to ensure linear metabolite formation with respect to protein concentration and reaction time. All test compounds were assessed at 1 μM based on our ADMET standard operating procedures and protocols, also published previously (1 μM was selected based on our ADMET standard operating procedures and protocols also published previously) (Rogdakis et al., [2022]; Yilmaz et al., [2022]). Approximately 1 mM of NADPH served as a cofactor. Reactions took place in triplicates at 37°C. Negative and positive controls (low vs. rapid clearance) were included for low vs. rapid clearance. After 60 min, reactions were terminated.
Parent structure loss is classified as very slow (<5%), slow (5–19%), moderate (20–50%), fast (50–80%), or very fast (>80%). Such categories have been defined according to set criteria, namely, high metabolism (t1/2 value of <30 min), moderate metabolism (30 min <t1/2 value of <60 min), and low metabolism (t1/2 value of >60 min) (EMA, [2012], [2013]; FDA, [2020]).

T1 sequence (P15209 32-821): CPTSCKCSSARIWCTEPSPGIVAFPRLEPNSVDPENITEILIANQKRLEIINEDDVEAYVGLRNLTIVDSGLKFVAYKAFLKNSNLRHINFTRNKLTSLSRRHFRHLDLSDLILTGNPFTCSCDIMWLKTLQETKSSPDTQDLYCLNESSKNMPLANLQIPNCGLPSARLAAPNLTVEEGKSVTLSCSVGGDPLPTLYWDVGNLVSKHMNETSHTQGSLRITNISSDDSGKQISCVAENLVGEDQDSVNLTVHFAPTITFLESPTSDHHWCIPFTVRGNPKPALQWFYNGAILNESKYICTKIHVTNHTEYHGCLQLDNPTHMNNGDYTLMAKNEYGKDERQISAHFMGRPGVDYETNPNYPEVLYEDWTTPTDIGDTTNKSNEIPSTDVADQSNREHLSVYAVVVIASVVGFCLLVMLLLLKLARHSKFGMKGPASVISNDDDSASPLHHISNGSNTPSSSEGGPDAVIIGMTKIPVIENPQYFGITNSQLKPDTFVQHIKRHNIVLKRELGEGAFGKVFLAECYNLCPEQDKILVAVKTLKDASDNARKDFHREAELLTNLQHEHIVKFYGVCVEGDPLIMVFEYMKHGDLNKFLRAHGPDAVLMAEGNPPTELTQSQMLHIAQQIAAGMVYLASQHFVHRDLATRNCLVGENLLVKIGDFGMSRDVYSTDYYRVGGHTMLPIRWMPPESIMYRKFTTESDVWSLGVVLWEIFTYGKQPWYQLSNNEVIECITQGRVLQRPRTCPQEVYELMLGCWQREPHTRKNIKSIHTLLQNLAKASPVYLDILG

Take `CN(C)Cc1cn(CC2=CC[C@@]3(CC[C@H]4[C@@H]5CC=C6C[C@@H](O)CC[C@]6(C)[C@H]5CC[C@@]43C)OC2)nn1` [ENT-A046, (3S,17R)-5′-[(4-((dimethylamino)methyl)-1H-1,2,3-triazol-1-yl)methyl]-3′,6′-dihydrospiro[5-androstene-17,2′-pyran]-3-ol]: the “protection of PC12 cells from serum deprivation-induced cell death (CellTox)” value in series [1] is recorded as “without showing any antiapoptotic activity in PC12 cells”. The “protection of NIH-3T3-TrkB cells from serum deprivation-induced cell death (CellTox)” value in series [2] is “significantly reduce cell death levels compared to the serum-free control, comparable to the BDNF action”. For the same molecule, in series [3], the “phosphorylation levels of the TrkB receptor” value was “only ENT-A009 and ENT-A055 successfully increased phosphorylation levels of the TrkB receptor”.
Turning to `C[C@]12CC[C@H](O)CC1=CC[C@@H]1[C@@H]2CC[C@@]2(C)[C@H]1CCC21CC(=O)C1` [ENT-A076, (3S)-3-hydroxy-spiro[5-androsten-17-cyclobutan]-3′-one], in series [2], the “protection of NIH-3T3-TrkB cells from serum deprivation-induced cell death (CellTox)” value is recorded as “demonstrated the ability to promote cell survival during serum starvation as well as BDNF”. Also, in series [4], the “rescue of NIH3T3 naive cells (no neurotrophin receptors) from serum deprivation-induced cell death (CellTox)” value is “neither the compounds nor BDNF were able to rescue the cells from cell death”. Also, in series [5], the “residual of time zero” value stood at 95% and the “parent structure loss (depletion) class” value is reported as “slow (slow (5–19%))”.
The like results for `COC(=O)C=C1CC2(CC[C@H]3[C@@H]4CC=C5C[C@@H](O)CC[C@]5(C)[C@H]4CC[C@@]32C)C1` (stereo partly drawn) [ENT-A087] were, in that order, “demonstrated the ability to promote cell survival during serum starvation as well as BDNF”, “neither the compounds nor BDNF were able to rescue the cells from cell death”, greater than 95% and “very slow (very slow (<5%))”.

B1: brain-derived neurotrophic factor (protein, UniProt P23560 19-247, looked up)
Neurotrophic factor BDNF …: APMKEANIRGQGGLAYPGVRTHGTLESVNGPKAGSRGLTSLADTFEHVIEELLDEDQKVRPNEENNKDADLYTSRVMLSSQVPLEPPLLFLLEEYKNYLDAANMSMRVRRHSDPARRGELSVCDSISEWVTAADKKTAVDMSGGTVTVLEKVPVSKGQLKQYFYETKCNPMGYTKEGCRGIDKRHWNSQCRTTQSYVRALTMDSKKRIGWRFIRIDTSCVCTLTIKRGR
notes: native neurotrophin ligand of the TrkB receptor, positive control at 500 ng/mL
For B1, in series [4], the “rescue of NIH3T3 naive cells (no neurotrophin receptors) from serum deprivation-induced cell death (CellTox)” value is “neither the compounds nor BDNF were able to rescue the cells from cell death”.
